Assay results: patent US9040527B2, “Pyrimidinediamine kinase inhibitors” (Rigel Pharmaceuticals, Inc., priority 2008, dated 2015)

How the values were obtained:
PLK1 [1] = target: T1, PLK1 (Homo sapiens, UniProt P53350); assay: In vitro PLK1 ELISA assay (biochemical); set-up: purchased Cell Signalling 7728
In short: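 Commercial PLK1 phosphorylates neutravidin-captured biotinylated CHK2 peptide for 45 min at room temperature in HEPES pH 7.2 with Mg2+/Mn2+/DTT, compounds at 10 μM to 0.005 μM. Phospho-CHK2(T68) antibody plus HRP secondary gives chemiluminescent read-out used for IC50.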

PLK1 [2] = target: T1, PLK1; assay: Cellular PLK1 assay in K562 cells overexpressing CDC25C; type: cell-based; set-up: endogenous in cells; host or cells: K562 (human chronic myelogenous leukemia) overexpressing CDC25C, nocodazole-arrested; details: nocodazole arrested, cdc25c p-Ser198 readout
In short: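 K562 cells overexpressing CDC25C were arrested with 333 nM nocodazole for 18 h at 37 °C, then exposed to compound at 8 points from 10 μM to 0.005 μM in duplicate for 120 min. After fixation and permeabilization, cells were stained for cdc25c pSer198 with a PE secondary and read by flow cytometry, 10,000 cells per well.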

[3] = ELISA, CHK2-derived peptide substrate, read-out: PLK1 IC50 (μM) biochemical assay
[4] = read-out: IC50 in biochemical in vitro PLK1 ELISA assay (less than 10 μM)
[5] = read-out: IC50 in biochemical ELISA assay (less than 0.01 μM)

T1 sequence (P53350 whole entry): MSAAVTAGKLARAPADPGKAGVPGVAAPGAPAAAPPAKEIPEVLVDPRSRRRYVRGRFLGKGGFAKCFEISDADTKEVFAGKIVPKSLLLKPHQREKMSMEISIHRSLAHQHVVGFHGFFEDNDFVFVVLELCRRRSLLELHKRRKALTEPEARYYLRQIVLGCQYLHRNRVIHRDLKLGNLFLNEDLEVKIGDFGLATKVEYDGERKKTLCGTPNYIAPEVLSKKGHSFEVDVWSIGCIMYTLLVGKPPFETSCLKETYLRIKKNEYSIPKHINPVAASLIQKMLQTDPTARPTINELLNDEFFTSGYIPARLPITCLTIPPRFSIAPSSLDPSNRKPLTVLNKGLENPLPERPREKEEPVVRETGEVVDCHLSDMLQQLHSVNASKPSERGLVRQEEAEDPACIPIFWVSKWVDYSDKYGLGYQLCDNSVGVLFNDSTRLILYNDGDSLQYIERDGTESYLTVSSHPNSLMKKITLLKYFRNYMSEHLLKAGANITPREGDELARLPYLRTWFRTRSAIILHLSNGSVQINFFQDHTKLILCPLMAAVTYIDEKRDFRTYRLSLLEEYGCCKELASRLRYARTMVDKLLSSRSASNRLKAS

| IC50 (PLK1 [1]; [3]) [µM] | IC50 (PLK1 [1]; [4]) [µM] | IC50 (PLK1 [2]) [µM] | IC50 (PLK1 [1]; [5]) [µM] | SMILES |
| --- | --- | --- | --- | --- |
| 0.5 to 5 | < 10 | ≥ 10 |  | Cc1cnc(Nc2cccc(N3CCN(C)CC3)c2)nc1Nc1ccc2c(n1)N(C1CCCC1)C(=O)CO2 [compound 116, 4-cyclopentyl-6-(5-methyl-2-(3-(4-methylpiperazin-1-yl)phenylamino)pyrimidin-4-ylamino)-2H-pyrido[3,2-b][1,4]oxazin-3(4H)-one] |
| ≥ 10 |  | ≥ 10 |  | Cc1cc(Nc2ncc(C)c(Nc3ccc4c(n3)N(C3CCCC3)C(=O)CO4)n2)ccc1N1CCN(C)CC1 [compound 117, 4-cyclopentyl-6-(5-methyl-2-(3-methyl-4-(4-methylpiperazin-1-yl)phenylamino)pyrimidin-4-ylamino)-2H-pyrido[3,2-b][1,4]oxazin-3(4H)-one] |
| ≥ 10 |  | 0.5 to 5 |  | Cc1cc(Nc2ncc(F)c(Nc3ccc4c(n3)N(Cc3ccccc3)C(=O)CO4)n2)ccc1N1CCN(C)CC1 [compound 118, 4-benzyl-6-(5-fluoro-2-(3-methyl-4-(4-methylpiperazin-1-yl)phenylamino)pyrimidin-4-ylamino)-2H-pyrido[3,2-b][1,4]oxazin-3(4H)-one] |
| ≥ 10 |  | ≥ 10 |  | Cc1cc(Nc2ncc(C)c(Nc3ccc4c(n3)N(CC3CCCCC3)C(=O)CO4)n2)ccc1N1CCN(C)CC1 [compound 119, 4-(cyclohexylmethyl)-6-(5-methyl-2-(3-methyl-4-(4-methylpiperazin-1-yl)phenylamino)pyrimidin-4-ylamino)-2H-pyrido[3,2-b][1,4]oxazin-3(4H)-one] |
| 0.5 to 5 | < 10 | 0.5 to 5 |  | CN1CCN(c2cccc(Nc3ncc(F)c(Nc4ccc5c(n4)N(Cc4ccccc4)C(=O)CO5)n3)c2)CC1 [compound 120, 4-benzyl-6-(5-fluoro-2-(3-(4-methylpiperazin-1-yl)phenylamino)pyrimidin-4-ylamino)-2H-pyrido[3,2-b][1,4]oxazin-3(4H)-one] |
| ≥ 10 |  | 0.5 to 5 |  | Cc1cc(Nc2ncc(C)c(Nc3ccc4c(n3)N(Cc3ccccc3)C(=O)CO4)n2)ccc1N1CCN(C)CC1 [compound 121, 4-benzyl-6-(5-methyl-2-(3-methyl-4-(4-methylpiperazin-1-yl)phenylamino)pyrimidin-4-ylamino)-2H-pyrido[3,2-b][1,4]oxazin-3(4H)-one] |
| < 0.5 | < 10 | 0.5 to 5 | < 0.01 | Cc1cnc(Nc2cccc(N3CCN(C)CC3)c2)nc1Nc1ccc2c(n1)N(Cc1ccccc1)C(=O)CO2 [compound 122, 4-benzyl-6-(5-methyl-2-(3-(4-methylpiperazin-1-yl)phenylamino)pyrimidin-4-ylamino)-2H-pyrido[3,2-b][1,4]oxazin-3(4H)-one] |
| ≥ 10 |  | ≥ 10 |  | COc1ccc(CN2C(=O)COc3ccc(Nc4nc(Nc5cccc(N6CCN(C)CC6)c5)ncc4F)nc32)cc1 [compound 123, 6-(5-fluoro-2-(3-(4-methylpiperazin-1-yl)phenylamino)pyrimidin-4-ylamino)-4-(4-methoxybenzyl)-2H-pyrido[3,2-b][1,4]oxazin-3(4H)-one] |
| ≥ 10 |  | ≥ 10 |  | COc1ccc(CN2C(=O)COc3ccc(Nc4nc(Nc5ccc(N6CCN(C)CC6)c(C)c5)ncc4F)nc32)cc1 [compound 124, 6-(5-fluoro-2-(3-methyl-4-(4-methylpiperazin-1-yl)phenylamino)pyrimidin-4-ylamino)-4-(4-methoxybenzyl)-2H-pyrido[3,2-b][1,4]oxazin-3(4H)-one] |
| 5 to 10 | < 10 | ≥ 10 |  | COc1ccc(CN2C(=O)COc3ccc(Nc4nc(Nc5cccc(N6CCN(C)CC6)c5)ncc4C)nc32)cc1 [compound 125, 4-(4-methoxybenzyl)-6-(5-methyl-2-(3-(4-methylpiperazin-1-yl)phenylamino)pyrimidin-4-ylamino)-2H-pyrido[3,2-b][1,4]oxazin-3(4H)-one] |
| ≥ 10 |  | 0.5 to 5 |  | COc1ccc(CN2C(=O)COc3ccc(Nc4nc(Nc5ccc(N6CCN(C)CC6)c(C)c5)ncc4C)nc32)cc1 [compound 126, 4-(4-methoxybenzyl)-6-(5-methyl-2-(3-methyl-4-(4-methylpiperazin-1-yl)phenylamino)pyrimidin-4-ylamino)-2H-pyrido[3,2-b][1,4]oxazin-3(4H)-one] |
| < 0.5 | < 10 | < 0.5 | < 0.01 | C#CCN1C(=O)COc2ccc(Nc3nc(Nc4cccc(N5CCN(C)CC5)c4)ncc3C)nc21 [compound 127, 6-(5-methyl-2-(3-(4-methylpiperazin-1-yl)phenylamino)pyrimidin-4-ylamino)-4-(prop-2-ynyl)-2H-pyrido[3,2-b][1,4]oxazin-3(4H)-one] |
| < 0.5 | < 10 | 0.5 to 5 | < 0.01 | C#CCN1C(=O)COc2ccc(Nc3nc(Nc4cccc(N5CCN(C)CC5)c4)ncc3F)nc21 [compound 128, 6-(5-fluoro-2-(3-(4-methylpiperazin-1-yl)phenylamino)pyrimidin-4-ylamino)-4-(prop-2-ynyl)-2H-pyrido[3,2-b][1,4]oxazin-3(4H)-one] |
| < 0.5 | < 10 | 0.5 to 5 | < 0.01 | Cc1cnc(Nc2cccc(N3CCN(C)CC3)c2)nc1Nc1ccc2c(n1)N(CC1CC1)C(=O)CO2 [compound 129, 4-(cyclopropylmethyl)-6-(5-methyl-2-(3-(4-methylpiperazin-1-yl)phenylamino)pyrimidin-4-ylamino)-2H-pyrido[3,2-b][1,4]oxazin-3(4H)-one] |
| < 0.5 | < 10 | 0.5 to 5 | < 0.01 | Cc1cnc(Nc2cccc(N3CCN(C)CC3)c2)nc1Nc1ccc2c(n1)N(CC1CCC1)C(=O)CO2 [compound 130, 4-(cyclobutylmethyl)-6-(5-methyl-2-(3-(4-methylpiperazin-1-yl)phenylamino)pyrimidin-4-ylamino)-2H-pyrido[3,2-b][1,4]oxazin-3(4H)-one] |
| 0.5 to 5 | < 10 | ≥ 10 |  | CN1CCN(c2cccc(Nc3ncc(F)c(Nc4ccc5c(n4)N(C4CCCC4)C(=O)CO5)n3)c2)CC1 [compound 131, 4-cyclopentyl-6-(5-fluoro-2-(3-(4-methylpiperazin-1-yl)phenylamino)pyrimidin-4-ylamino)-2H-pyrido[3,2-b][1,4]oxazin-3(4H)-one] |
| 5 to 10 | < 10 | 0.5 to 5 |  | CN1CCN(c2cccc(Nc3ncc(F)c(Nc4ccc5c(n4)N(Cc4ccc(F)cc4)C(=O)CO5)n3)c2)CC1 [compound 132, 6-(5-fluoro-2-(3-(4-methylpiperazin-1-yl)phenylamino)pyrimidin-4-ylamino)-4-(4-fluorobenzyl)-2H-pyrido[3,2-b][1,4]oxazin-3(4H)-one] |
| < 0.5 | < 10 | 0.5 to 5 |  | Cc1cnc(Nc2cccc(N3CCN(C)CC3)c2)nc1Nc1ccc2c(n1)N(Cc1ccc(F)cc1)C(=O)CO2 [compound 133, 4-(4-fluorobenzyl)-6-(5-methyl-2-(3-(4-methylpiperazin-1-yl)phenylamino)pyrimidin-4-ylamino)-2H-pyrido[3,2-b][1,4]oxazin-3(4H)-one] |
| < 0.5 | < 10 | < 0.5 | < 0.01 | CCC(CC)N1C(=O)COc2ccc(Nc3nc(Nc4cccc(N5CCN(C)CC5)c4)ncc3F)nc21 [compound 134, 6-(5-fluoro-2-(3-(4-methylpiperazin-1-yl)phenylamino)pyrimidin-4-ylamino)-4-(pentan-3-yl)-2H-pyrido[3,2-b][1,4]oxazin-3(4H)-one] |
| ≥ 10 |  | ≥ 10 |  | CCCN1C(=O)COc2ccc(Nc3nc(Nc4ccc(N5CCN(C)CC5)c(C(F)(F)F)c4)ncc3F)nc21 [compound 135, 6-(5-fluoro-2-(4-(4-methylpiperazin-1-yl)-3-(trifluoromethyl)phenyl-amino)pyrimidin-4-ylamino)-4-propyl-2H-pyrido[3,2-b][1,4]oxazin-3(4H)-one] |
| ≥ 10 |  | ≥ 10 |  | CCCN1C(=O)COc2ccc(Nc3nc(Nc4ccc(N5CCN(C)CC5)c(C(F)(F)F)c4)ncc3C)nc21 [compound 136, 6-(5-methyl-2-(4-(4-methylpiperazin-1-yl)-3-(trifluoromethyl)phenyl-amino)pyrimidin-4-ylamino)-4-propyl-2H-pyrido[3,2-b][1,4]oxazin-3(4H)-one] |
| ≥ 10 |  | ≥ 10 |  | CCCN1C(=O)COc2ccc(Nc3nc(Nc4ccc(N5CCN(S(C)(=O)=O)CC5)c(C(F)(F)F)c4)ncc3F)nc21 [compound 137, 6-(5-fluoro-2-(4-(4-(methylsulfonyl)piperazin-1-yl)-3-(trifluoro-methyl)phenyl-amino)pyrimidin-4-ylamino)-4-propyl-2H-pyrido[3,2-b][1,4]oxazin-3(4H)-one] |
| ≥ 10 |  | ≥ 10 |  | CCCN1C(=O)COc2ccc(Nc3nc(Nc4ccc(N5CCNCC5)c(C(F)(F)F)c4)ncc3F)nc21 [compound 138, 6-(5-fluoro-2-(4-(piperazin-1-yl)-3-(trifluoromethyl)phenyl-amino)pyrimidin-4-ylamino)-4-propyl-2H-pyrido[3,2-b][1,4]oxazin-3(4H)-one] |
